# Results taken from patent publication US8987198B2, “Compositions and methods for treating obesity and diabetes” (The Administrators of the Tulane Educational Fund, priority 2009, dated 2015).
# How the values were obtained:
# [1] = tested on: Liver X Receptor in LNCaP Cells; test: Up-regulation of LXR-responsive genes ABCG1/ABCA1 in LNCaP cells; format: cell-based; conditions: glyceollin at 5 μM for 48 h
# Procedure: LNCaP cells were obtained from the American Type Culture Collection (Manassas, Va.) and maintained in Media A [RPMI 1640 medium with phenol red (Invitrogen, Carlsbad, Calif.), 2 mM L-glutamine (Sigma), 100 U/mL penicillin and 100 μg/mL streptomycin (BioSource International, Camarillo, Calif.) with 10% fetal bovine serum (FBS) (Invitrogen, Carlsbad, Calif.)]. Cells were incubated in the presence of 5% CO2 in air at 37° C.
# [2] = tested on: 3T3-L1 differentiated adipocytes; test: [3H]2-deoxyglucose uptake assay in 3T3-L1 adipocytes; format: cell-based, murine; conditions: for glucose uptake after addition of insulin: 0.3 nM insulin + glyceollin; for glucose uptake after addition of insulin / glucose uptake in the absence of insulin: FIG. 17; for glucose uptake in the absence of insulin: 24 h KRH, then 30 min exposure; for insulin-mediated glucose uptake after pre-incubation with glyceollins: 24 hours pre-incubation, 30 min insulin, FIG. 15
# Procedure: Krebs-Ringers-Hepes (KRH) buffer was prepared with 200 mL H2O, 300 μL of 1 M CaCl2, 300 μL of 1.2 M MgSO4, 300 μL of 1 M KH2PO4, 3 mL of 0.14 M KCl, 6 mL of 1 M HEPES in 1.2 M NaHCO3, and 15 mL of 2.6 M NaCl. […] Insulin (MW=5808) stock solution (100 μM) was prepared by dissolving 2.90 mg insulin into 5 mL of 0.01 N HCl. To make working solutions: the stock solution was diluted 1:10 by adding 100 μL stock to 900 μL KRH buffer, giving solution A (10 μM); solution A was diluted by adding 400 μL of solution A to 932 μL KRH buffer, giving solution B (3 μM); solution A was diluted by adding 100 μL of solution A to 900 μL KRH buffer, giving solution C (1 μM); solution B was diluted by adding 100 μL of solution B to 900 μL KRH buffer, giving solution D (300 nM); solution C was diluted by adding 100 μL of solution C to 900 μL KRH buffer, giving solution E (100 nM); solution D was diluted by adding 100 μL of solution D to 900 μL KRH buffer, giving solution F (30 nM); solution E was diluted by adding 100 μL of solution E to 900 μL KRH buffer, giving solution G (10 nM); solution F was diluted by adding 100 μL of solution F to 900 μL KRH buffer, giving solution H (3 nM); solution G was diluted by adding 100 μL of solution G to 900 μL KRH buffer, giving solution I (1 nM); and solution H was diluted by adding 100 μL of solution H to 900 μL KRH buffer, giving solution J (0.3 nM). 100 μL of each concentration was added to each well with a final volume in each well of 1000 μL (1:10 dilution when added to cells). […] This stock solution was kept refrigerated. To make working solutions: 80 μL of the stock solution was diluted with 3920 μL KRH buffer, giving solution A (200 μM); solution A was diluted by adding 500 μL of solution A to 335 μL KRH buffer, giving solution B (120 μM); solution A was diluted by adding 1000 μL of solution A to 1000 μL KRH buffer, giving solution C (100 μM); solution A was diluted by adding 1000 μL of solution A to 1500 μL KRH buffer, giving solution D (80 μM); solution A was diluted by adding 1000 μL of solution A to 2330 μL KRH buffer, giving solution E (60 μM); solution D was diluted by adding 1000 μL of solution D to 1000 μL KRH buffer, giving solution F (40 μM); solution F was diluted by adding 1000 μL of solution F to 1000 μL KRH buffer, giving solution G (20 μM); solution G was diluted by adding 1000 μL of solution G to 1000 μL KRH buffer, giving solution H (10 μM); and solution H was diluted by adding 1000 μL of solution H to 1000 μL KRH buffer, giving solution I (5 μM). 100 μL of each concentration was added to each well with a final volume in each well of 1000 μL (1:10 dilution when added to cells). Unless indicated otherwise (see, e.g., EXAMPLES 14 & 15), where the EXAMPLES below refer to glyceollin, a mixture of glyceollins I, II, and III, was used. Cell culture and differentiation of murine 3T3-L1 cells is a well-accepted model for study of adipocyte differentiation, glucose uptake, and insulin action. These cells undergo a program of differentiation manifest by large lipid droplet accumulation when stimulated by the appropriate hormonal cocktail. The adipocytes express markers such as leptin and adiponectin, express Glut 4, and respond to insulin stimulation by increasing glucose uptake, similar to primary adipocytes. For these experiments, frozen preadipocytes were purchased from Zenbio (Research Triangle Park, N.C.). They were thawed at 37° C., diluted with Zenbio Preadipocyte medium, and incubated in 24-well plates at 37° C. in a humidified atmosphere containing 95% air and 5% CO2 until confluent. Signals derived from confluency were allowed by incubating for 2 more days. Preadipocyte medium was replaced with Zenbio Differentiation Medium and the cells were incubated for 3 additional days; that medium was replaced with Zenbio Adipocyte […] medium for about 2 weeks when greater than 95% of the cells appeared filled with large lipid droplets. […]
Compound,glucose uptake after addition of insulin [2],glucose uptake in the absence of insulin [2],insulin-mediated glucose uptake after pre-incubation with glyceollins [2],also measured
"O=c1c(-c2ccc(O)cc2)coc2cc(O)cc(O)c12 [Genistein, genistein]",–,–,–,fold up-regulation of ABCG1 [1]: 3 fold
C=C(C)[C@@H]1Cc2cc3c(cc2O1)OC[C@@]1(O)c2ccc(O)cc2O[C@@H]31 [glyceollin III],further enhanced,can stimulate glucose uptake in the absence of insulin,more effective than glyceollin II,–
CC1(C)C=Cc2c(ccc3c2OC[C@@]2(O)c4ccc(O)cc4O[C@@H]32)O1 [glyceollin I],further enhanced,can stimulate glucose uptake in the absence of insulin,more effective than glyceollin II,"glucose uptake after 30 minute exposure ([2]; 5 μM, cells pre-incubated 24 h with KRH, FIG. 16): stimulate glucose uptake better than glyceollins II and III"
"Oc1ccc2c(c1)OC[C@@]1(O)c3ccc(O)cc3O[C@@H]21 [glycinol, reference compound]",–,–,–,"glucose uptake after 30 minute exposure to glycinol ([2]; 1 μM and 0.1 μM, absence of insulin, FIG. 16 columns 7 and 8): does not present the same bioactivity as glyceollin; glucose uptake with glycinol ([2]; 5 μM glycinol, 24 h pre-incubation, with or without insulin, FIG. 14): ineffective at stimulating glucose uptake"
insulin [reference compound],–,–,–,"glucose uptake by insulin alone ([2]; 0.2 nM insulin, FIG. 19 column 2): stimulation of glucose uptake"
